The source of these data is US20050119297A1, “Use of 5HT3 agonists for relaxing the fundus” (priority 1999, published 2005).

Assay [1] has as its target 5-HT3 receptor. The following applies: canine intestinal smooth muscle; read-out: affinity for the 5-HT3 receptor IC50; cited from earlier work.
Assay [2] deals with gastric tone in conscious dogs. The experiment in a line: Gastric tone measured by an electronic barostat in conscious dogs. Format: in vivo, beagle dogs. The following applies: mean maximal change in gastric volume 1 hour after administration, intragastric pressure 6 mmHg. Here is the method: C.1. Gastric Tone Measured by an Electronic Barostat in Conscious Dogs
Gastric tone cannot be measured by manometric methods. Therefore an electronic barostat was used. This allows the study of the physiological pattern and regulation of gastric tone in conscious dogs and the influence of test-compounds on this tone.
The barostat consists of an air injection system which is connected by a double-lumen 14-French polyvinyl tube to an ultrathin flaccid polyethylene bag (maximal volume: ±700 ml). Variations in gastric tone were measured by recording changes in the volume of air within an intragastric bag, maintained at a constant pressure. The barostat maintains a constant pressure (preselected) within a flaccid air-filled bag introduced into the stomach, changing the volume of air within the bag by an electronic feedback system.
Thus, the barostat measures gastric motor activity (contraction or relaxation) as changes in intragastric volume (decrease or increase resp.) at a constant intragastric pressure. The barostat consists of a strain gauge linked by an electronic relay to an air injection-aspiration system. Both the strain gauge and the injection system are connected by means of double-lumen polyvinyl tube to an ultrathin polyethylene bag. A dial in the barostat allows selection of the pressure level to be maintained within the intragastric bag.
Female beagle dogs, weighing 7-17 kg, were trained to stand quietly in Pavlov frames. They were implanted with a gastric cannula under general anaesthesia and aseptic precautions. After a median laparotomy, an incision was made through the gastric wall in longitudinal direction between the greater and the lesser curve, 2 cm above the nerves of Latarjet. The cannula was secured to the gastric wall by means of a double purse string suture and brought out via a stub wound at the left quadrant of the hypochondrium. Dogs were allowed a recovery period of two weeks.
At the beginning of the experiment, the cannula is opened in order to remove any gastric juice or food remnants. If necessary, the stomach is cleansed with 40 to 50 ml lukewarm water. The ultrathin bag of the barostat is positioned into the fundus of the stomach through the gastric cannula. In order to ensure easy unfolding of the intragastric bag during the experiment, a volume of 150-200 ml is injected into the bag by raising the pressure to maximally 14 mm Hg (about 1.87 kPa) very briefly. This procedure is repeated twice.
After a stabilization period of 60 minutes at an intragastric pressure of 6 mmHg (about 0.81 kPa), the test compound was administered subcutaneously, or intraduodenally. […] Table C-1 summarizes the mean maximal change in volume 1 hour after I.D. or S.C. administration of the compound (R)-N-(1-azabicyclo[2.2.2]oct-3-yl)-4,7-dihydro-7-oxothieno[3,2-b]pyridine-6-carboxamide monohydrochloride at test concentrations of 0.63 mg/kg, 0.16 mg/kg and 0.04 mg/kg.

Broadly, the IC50 is the concentration that inhibits the measured activity by half. Consider `Cl.O=C(N[C@H]1CN2CCC1CC2)c1c[nH]c2ccsc2c1=O` [(R)-N-(1-azabicyclo[2.2.2]oct-3-yl)-4,7-dihydro-7-oxothieno[3,2-b]pyridine-6-carboxamide monohydrochloride], for which the IC50 in assay [1] is 1.3 nM. For the same compound, the “Maximum change in volume” value came to 57 mL in assay [2] (I.D. administration, 0.04 mg/kg); 51 mL in assay [2] (I.D. administration, 0.16 mg/kg); 104 mL in assay [2] (I.D. administration, 0.63 mg/kg); 127 mL in assay [2] (S.C. administration, 0.04 mg/kg); 108 mL in assay [2] (S.C. administration, 0.16 mg/kg); 156 mL in assay [2] (S.C. administration, 0.63 mg/kg).
